The record followed here is ChEMBL document CHEMBL5107956, “Natural products from mangrove sediments-derived microbes: Structural diversity, bioactivities, biosynthesis, and total synthesis” (Eur J Med Chem, 2022).

≈ marks a conversion by molar mass, not a printed value.

For assay [1], the target named is Phosphotyrosine-protein phosphatase PTPB (Mycobacterium tuberculosis, UniProt P96830). As to the kind of experiment: Inhibition of N-terminal His6-tagged Mycobacterium tuberculosis H37Rv PTPB using 6,8-difluoromethylumbelliferyl phosphate as substrate incubated for 30 mins by fluorescence based analysis.
Chain of Phosphotyrosine-protein phosphatase PTPB (P96830 whole entry): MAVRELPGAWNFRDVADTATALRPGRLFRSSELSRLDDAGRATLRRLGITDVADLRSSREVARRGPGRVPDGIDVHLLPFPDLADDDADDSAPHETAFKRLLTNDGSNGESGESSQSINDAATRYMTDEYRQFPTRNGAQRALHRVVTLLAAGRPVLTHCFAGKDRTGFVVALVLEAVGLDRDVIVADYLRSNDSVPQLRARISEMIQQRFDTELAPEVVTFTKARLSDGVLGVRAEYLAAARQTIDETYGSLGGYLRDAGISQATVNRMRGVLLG
For the next assay, the system named is RAW264.7. The assay is described as follows: Antiinflammatory activity against LPS-induced mouse RAW264.7 cells assessed as inhibition of NO production measured after 24 hrs […]. Type of assay: functional, cell-based. The following applies: RAW264.7, 24 h. Background: Tetrazolium assays rely on reduction of a dye to a coloured formazan, in cell work by metabolically active cells.

Assay [2] relates to Colletotrichum gloeosporioides. As to the kind of experiment: Antifungal activity against Colletotrichum gloeosporioides assessed as inhibition of fungal growth measured after 72 hrs by micro plate reader analysis. Type of assay: functional.
Assay [3] can be described thus: Antioxidant activity assessed as DPPH radical scavenging activity incubated for 30 mins by […] assay. Type of assay: functional. A general note: DPPH is a stable violet radical that fades when it is reduced.
The subject of another assay is Candida albicans. The assay is described as follows: Antifungal activity against Candida albicans MTCC 227 assessed as cell growth inhibition measured after 48 to 72 hrs. The following applies: time 48-72 hrs. Type of assay: functional.
For the next assay, the system named is Aspergillus niger. The assay is described as follows: Antifungal activity against Aspergillus niger MTCC 282 assessed as cell growth inhibition measured after 48 to 72 hrs. Type of assay: functional. The following applies: time 48-72 hrs.
The next assay has as its system Saccharomyces cerevisiae. The assay is described as follows: Antifungal activity against Saccharomyces cerevisiae MTCC 170 assessed as cell growth inhibition measured after 48 to 72 hrs. The following applies: time 48-72 hrs. Type of assay: functional.
In another assay the test system is NCI-H2122. As to the kind of experiment: Cytotoxicity against human NCI-H2122 cells assessed as cell growth inhibition measured after 96 hrs by CellTiter-Glo assay. Type of assay: functional, cell-based. The following applies: NCI-H2122, 96 h. In general terms: ATP-based viability assays read luminescence as a measure of living cells.
The nature of assay [4]: Cytotoxicity against human HCC366 cells assessed as cell growth inhibition measured after 96 hrs by CellTiter-Glo assay. Type of assay: functional, cell-based. The following applies: HCC366, 96 h.
Assay [5] has as its system MCF7. The assay is described as follows: Cytotoxicity against human MCF7 cells assessed as cell growth inhibition incubated for 48 hrs by MTT assay. Type of assay: functional, cell-based. The following applies: MCF7, 48 h.
Assay [6] relates to NCI-H460. As to the kind of experiment: Cytotoxicity against human NCI-H460 cells assessed as cell growth inhibition incubated for 48 hrs by MTT assay. Type of assay: functional, cell-based. The following applies: NCI-H460, 48 h.
For assay [7], the system named is SF-268. The assay is described as follows: Cytotoxicity against human SF-268 cells assessed as cell growth inhibition incubated for 48 hrs by MTT assay. Type of assay: functional, cell-based. The following applies: SF-268, 48 h.
The test system of assay [8] is Limimaricola hongkongensis. The assay is described as follows: Antibacterial activity against Limimaricola hongkongensis assessed as bacterial growth inhibition measured after 24 hrs by optical density based analysis. Type of assay: functional.
For the next assay, the system named is Staphylococcus aureus. The assay is described as follows: Antibacterial activity against Staphylococcus aureus assessed as bacterial growth inhibition measured after 24 hrs by optical density based analysis. Type of assay: functional.
The test system of assay [9] is MCF7. The assay is described as follows: Cytotoxicity against human MCF7 cells assessed as cell growth inhibition. Type of assay: functional, cell-based.
For assay [10], the system named is NCI-H460. The assay is described as follows: Cytotoxicity against human NCI-H460 cells assessed as cell growth inhibition. Type of assay: functional, cell-based.
In assay [11] the test system is SF-268. As to the kind of experiment: Cytotoxicity against human SF-268 cells assessed as cell growth inhibition. Type of assay: functional, cell-based.
A further assay concerns Bel-7402. The assay is described as follows: Cytotoxicity against human Bel-7402 cells assessed as cell growth inhibition measured after 72 hrs by MTT assay. The following applies: Bel-7402, 72 h. Type of assay: functional, cell-based.
Another assay concerns A549. As to the kind of experiment: Cytotoxicity against human A549 cells assessed as cell growth inhibition measured after 72 hrs by MTT assay. The following applies: A549, 72 h. Type of assay: functional, cell-based.
For another assay, the system named is HL-60. As to the kind of experiment: Cytotoxicity against human HL-60 cells assessed as cell growth inhibition measured after 72 hrs by MTT assay. The following applies: HL-60, 72 h. Type of assay: functional, cell-based.
For the next assay, the system named is NCI-H1975. As to the kind of experiment: Cytotoxicity against human NCI-H1975 cells assessed as cell growth inhibition measured after 72 hrs by MTT assay. Type of assay: functional, cell-based. The following applies: NCI-H1975, 72 h.
Assay [12] in a line: Cytotoxicity against human ACC-MESO-1 cells assessed as cell growth inhibition by MTT assay. Type of assay: functional, cell-based.
The test system of another assay is HeLa. As to the kind of experiment: Cytotoxicity against human HeLa cells assessed as cell growth inhibition by MTT assay. Type of assay: functional, cell-based.
For another assay, the target named is Acetylcholinesterase (Homo sapiens, UniProt P22303). The assay is described as follows: Inhibition of AChE (unknown origin) using acetylthiocholine iodide as substrate measured after 30 mins by Ellman's method.
Chain of Acetylcholinesterase (P22303 whole entry): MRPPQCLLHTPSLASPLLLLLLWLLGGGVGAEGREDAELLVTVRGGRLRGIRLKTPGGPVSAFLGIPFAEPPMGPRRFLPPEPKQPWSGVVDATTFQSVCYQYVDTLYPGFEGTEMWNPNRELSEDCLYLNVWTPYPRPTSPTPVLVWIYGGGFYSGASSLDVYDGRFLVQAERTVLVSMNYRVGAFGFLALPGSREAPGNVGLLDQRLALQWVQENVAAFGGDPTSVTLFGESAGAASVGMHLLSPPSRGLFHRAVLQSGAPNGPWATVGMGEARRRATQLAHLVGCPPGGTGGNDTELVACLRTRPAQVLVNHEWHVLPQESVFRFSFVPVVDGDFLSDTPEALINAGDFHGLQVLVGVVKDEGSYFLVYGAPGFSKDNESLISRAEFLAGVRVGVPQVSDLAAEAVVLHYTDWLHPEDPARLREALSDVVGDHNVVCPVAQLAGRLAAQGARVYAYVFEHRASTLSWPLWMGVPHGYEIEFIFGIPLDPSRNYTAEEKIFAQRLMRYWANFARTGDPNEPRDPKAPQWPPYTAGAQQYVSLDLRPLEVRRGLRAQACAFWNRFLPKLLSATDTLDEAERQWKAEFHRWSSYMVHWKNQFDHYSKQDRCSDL
The target of assay [13] is Angiotensin-converting enzyme (Homo sapiens, UniProt P12821). As to the kind of experiment: Inhibition of ACE (unknown origin) using hippuryl-histidyl-leucine as substrate pre-incubated with compound for 10 mins followed by substrate addition measured after 60 mins by HPLC analysis.
Chain of Angiotensin-converting enzyme (P12821 whole entry): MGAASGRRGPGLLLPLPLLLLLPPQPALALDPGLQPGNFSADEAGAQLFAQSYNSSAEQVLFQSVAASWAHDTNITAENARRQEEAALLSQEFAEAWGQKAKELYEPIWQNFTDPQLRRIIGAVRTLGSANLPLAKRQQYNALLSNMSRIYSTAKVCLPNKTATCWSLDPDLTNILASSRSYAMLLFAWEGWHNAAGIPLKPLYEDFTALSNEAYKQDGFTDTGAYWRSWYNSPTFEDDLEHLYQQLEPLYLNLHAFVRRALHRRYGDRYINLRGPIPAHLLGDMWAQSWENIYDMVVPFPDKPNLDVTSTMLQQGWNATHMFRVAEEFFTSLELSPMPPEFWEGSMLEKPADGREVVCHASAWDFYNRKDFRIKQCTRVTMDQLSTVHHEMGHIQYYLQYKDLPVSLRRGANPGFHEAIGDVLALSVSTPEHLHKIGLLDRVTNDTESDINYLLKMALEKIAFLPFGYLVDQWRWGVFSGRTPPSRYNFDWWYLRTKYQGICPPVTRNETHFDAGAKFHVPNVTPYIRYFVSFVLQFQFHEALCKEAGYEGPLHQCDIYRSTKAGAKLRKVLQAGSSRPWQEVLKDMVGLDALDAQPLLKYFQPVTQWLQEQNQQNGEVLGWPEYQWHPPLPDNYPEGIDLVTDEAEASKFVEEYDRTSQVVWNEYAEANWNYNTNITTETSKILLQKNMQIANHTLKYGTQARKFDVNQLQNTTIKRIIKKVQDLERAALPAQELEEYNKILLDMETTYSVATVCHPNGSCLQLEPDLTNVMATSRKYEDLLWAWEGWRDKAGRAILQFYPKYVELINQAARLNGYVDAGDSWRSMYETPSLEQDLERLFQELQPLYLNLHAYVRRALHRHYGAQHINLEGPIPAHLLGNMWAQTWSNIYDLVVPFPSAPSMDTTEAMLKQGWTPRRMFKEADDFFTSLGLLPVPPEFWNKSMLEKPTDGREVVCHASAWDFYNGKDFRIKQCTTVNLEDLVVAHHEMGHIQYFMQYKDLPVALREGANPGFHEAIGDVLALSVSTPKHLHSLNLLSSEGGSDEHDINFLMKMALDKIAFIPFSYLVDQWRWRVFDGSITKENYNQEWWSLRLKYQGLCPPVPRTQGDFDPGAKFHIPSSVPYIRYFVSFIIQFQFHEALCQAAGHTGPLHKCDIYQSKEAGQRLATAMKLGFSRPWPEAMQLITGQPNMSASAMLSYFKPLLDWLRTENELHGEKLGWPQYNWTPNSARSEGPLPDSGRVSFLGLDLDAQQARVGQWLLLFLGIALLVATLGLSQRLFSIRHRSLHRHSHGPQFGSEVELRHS
A short description of assay [14]: Inhibition of influenza A virus Neuraminidase N3 incubated for 10 mins by fluorescence based analysis.
Assay [15] concerns Pseudopestalotiopsis theae. As to the kind of experiment: Antifungal activity against Pestalotiopsis theae assessed as fungal cell growth inhibition. Type of assay: functional. The following applies: read-out: ED50 (the source's name).

For `CC(C)[C@@H](C)/C=C\[C@@H](C)[C@@]1(C)C[C@H]2C3=C4[C@@H](C=C5C[C@@H](O)CC[C@]5(C)[C@H]4CC[C@@]31C)[C@H](C(=O)O)[C@H]2C(=O)O`, the results for the half-inhibitory concentration (IC50) (in assay [1]; with RAW264.7) were 30.1 µM and 3.6 µM, respectively. Take `CC1=CC[C@]23C[C@@H]1C[C@@](C)(O)[C@H]2[C@H](O)C[C@@H]3C`: in [2], the minimum inhibitory concentration (MIC) stood at 1 µg/mL (≈ 4.23 µM). `C=CCOc1ccccc1O` [1-hydroxy-2-allyloxybenzene]: the IC50 in assay [3] is 22 µg/mL (≈ 146 µM). Besides, the MIC with Candida albicans, with Aspergillus niger and with Saccharomyces cerevisiae was 200 µg/mL (≈ 1330 µM) throughout. For `COc1cc2nc(C(=O)NCC(=O)O)sc2c(C/C=C(\C)CC/C=C(\C)CC/C=C(\C)CCC/C(C)=C\CC(=O)O)c1O`, the IC50 is 2.5 µM with NCI-H2122 and 6.8 µM in assay [4]. With `CC(C)[C@@H](C)/C=C/[C@@H](C)[C@H]1CC[C@H]2C3=CC(=O)N(CCO)[C@@]3(O)CC[C@]12C`, the figures for the IC50 with MCF7 [5], in the assay with NCI-H460 [6] and with SF-268 [7] were 18.1 µg/mL (≈ 48.2 µM), 23.5 µg/mL (≈ 62.6 µM) and 13 µg/mL (≈ 34.6 µM), respectively. As for `CC(=O)O[C@@H]1C[C@H](C)[C@@]23CC=C(C)[C@H](C2)C[C@@](C)(O)[C@@H]13`, the MIC in assay [2] was determined as 0.125 µg/mL (≈ 0.449 µM). Turning to `CC(C)[C@@H](C)/C=C/[C@@H](C)[C@@]1(C)C[C@H]2C3=C4[C@@H](C=C5C[C@@H](O)CC[C@]5(C)[C@H]4CC[C@@]31C)[C@H](C(=O)O)[C@H]2C(=O)O`, the IC50 worked out at 15.1 µM in assay [1] and 4.5 µM in the assay on RAW264.7. As for `CC(O)[C@H](NC(=O)c1cccc(NC=O)c1O)C(=O)O[C@@H](C)[C@H](OC(=O)Cc1ccccc1)[C@@H](C)C(=O)O` (some centres not stated), the MIC in assay [8] stood at 8 µg/mL (≈ 15.1 µM); with Staphylococcus aureus, 32 µg/mL (≈ 60.3 µM). For the molecule `CC(C)[C@@H](C)/C=C/[C@@H](C)[C@H]1CC[C@H]2C3=CC(=O)N(CCO)C3=CC[C@]12C`, the values for the IC50 with MCF7 [9], in the assay on NCI-H460 [10] and with SF-268 [11] were 7.5 µg/mL (≈ 21 µM), 7.8 µg/mL (≈ 21.8 µM) and 7.9 µg/mL (≈ 22.1 µM), respectively. With `C=CC(C)(C)c1[nH]c2c(CC=C(C)C)cc(CC=C(C)C)cc2c1C[C@@H]1NC(=O)C(=C)NC1=O`, the IC50 came to 4.2 µM in the assay on Bel-7402 and 1.43 µM in the assay on A549. Consider `C/C=C/C1=CC(=O)[C@]2(C(=O)c3c(OC)cc(OC)cc3C(=O)OC)O[C@@H]2O1`, for which the IC50 in the assay with HL-60 and in the assay on NCI-H1975 was 3.7 µM throughout. `CC(/C=C/C1CC1)=C\[C@@H]1[C@@H](OC(=O)CC(C)C)[C@](C)(O)[C@@H]2[C@H]3O[C@H]3CCN12`: the IC50 in assay [12] is 39 µM; in the assay with HeLa, 29 µM.

Turning to `C/C=C/C1=CC(=O)[C@@]2(C(=O)c3c(OC)cc(OC)cc3C(=O)OC)O[C@H]2O1`, the IC50 with HL-60 and in the assay with NCI-H1975 was 3.7 µM throughout.

On Acetylcholinesterase, `C[C@H]1CN2C(=O)[C@]34Cc5c([nH]c6c7c(ccc56)OC(C)(C)CC7=O)C(C)(C)[C@@H]3C[C@@]2(C1)C(=O)N4` returned an IC50 of 58 µM.

With `CC(=O)C[C@]1(O)C(=O)C2=C3O[C@H](C)C(C)(C)[C@]3(O)C(=O)c3c(C)cc(O)c(c32)C1=O`, the IC50 in [13] came to 11.3 µM. The molecule `CN1C(=O)c2cc(O)ccc2NC(=O)C12O[C@H]2c1ccccc1` (some centres not stated) displayed a concentration for half-maximal inhibition (IC50) in assay [14] of 5.02 µM. As for `CC(=C\C(=O)O)/C=C(\C)CCCCCC[C@H]1OC(=O)[C@@H]1CO`, the EC50 in assay [15] was found to be 42.3 µg/mL (≈ 136 µM).

In general, IC50 refers to the concentration that gives 50% inhibition. By MIC is commonly meant the lowest concentration found to suppress growth.
